Toxic doses and inconclusive results are not listed. Rule for the calls: active = survival T/C of 150% or more; inactive = T/C below 125% in these data.
Test system: BDF1 mice, P388 leukemia ip, median survival T/C
Assay: NCI In Vivo Anticancer Drug Screen. Data for tumor model P388 Leukemia (intraperitoneal) in B6D2F1 (BDF1) mice
Conditions: endpoint: median survival time, higher = longer survival
How it was run: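 Survival ratio, drug arm over vehicle arm, in mice with a transplanted tumour.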

[1] = dose: 200.0 mg/kg/injection, schedule: Q04DX002 (ip), vehicle: saline with Tween-80
[2] = dose: 400.0 mg/kg/injection, schedule: Q04DX002 (ip), vehicle: saline with Tween-80
[3] = dose: 25.0 mg/kg/injection, schedule: Q01DX009 (ip), vehicle: saline with Tween-80
[4] = dose: 50.0 mg/kg/injection, schedule: Q01DX009 (ip), vehicle: saline with Tween-80
[5] = dose: 100.0 mg/kg/injection, schedule: Q01DX009 (ip), vehicle: Klucel (hydroxypropylcellulose) (HPC)
[6] = dose: 100.0 mg/kg/injection, schedule: Q01DX009 (ip), vehicle: saline with Tween-80
[7] = dose: 100.0 mg/kg/injection, schedule: Q01DX009 (ip), vehicle: saline
[8] = dose: 100.0 mg/kg/injection, schedule: Q04DX003 (ip), vehicle: Klucel (hydroxypropylcellulose) (HPC)
[9] = dose: 200.0 mg/kg/injection, schedule: Q04DX003 (ip), vehicle: Klucel (hydroxypropylcellulose) (HPC)
[10] = dose: 400.0 mg/kg/injection, schedule: Q04DX003 (ip), vehicle: Klucel (hydroxypropylcellulose) (HPC)

Measured: T/C

CN(C)C1C(=O)C(C(=O)NCN2CCOB(c3ccccc3)OCC2)=C(O)C2(O)C(O)=C3C(=O)C4C(O)=CC=CC4C(C)(O)C3CC12 (stereo not given)
inactive: [1] 93 % of control | [2] 112 % of control

O=C(CC(=O)C(F)(F)C(F)(F)C(F)(F)F)c1csc2ccccc12
inactive: dose: 6.25 mg/kg/injection, schedule: Q01DX009 (ip), vehicle: Klucel (hydroxypropylcellulose) (HPC) 91 % of control | dose: 12.5 mg/kg/injection, schedule: Q01DX009 (ip), vehicle: Klucel (hydroxypropylcellulose) (HPC) 95 % of control | dose: 25.0 mg/kg/injection, schedule: Q01DX009 (ip), vehicle: Klucel (hydroxypropylcellulose) (HPC) 95 % of control | [3] 95 % of control | dose: 50.0 mg/kg/injection, schedule: Q01DX009 (ip), vehicle: Klucel (hydroxypropylcellulose) (HPC) 100 % of control | [4] 100 % of control | [5] 115 % of control | [6] 91 % of control | [7] 115 % of control | [8] 104 % of control | [9] 104 % of control | [10] 109 % of control

O=S(=O)(c1ccccc1)N1C2=CCCC3CCCCC23c2ccccc21 (stereo not given)
inactive: dose: 100.0 mg/kg/injection, schedule: Q04DX002 (ip), vehicle: saline with Tween-80 95 % of control | [1] 92 % of control | [2] 92 % of control

C=CCCCCCCCCC(=O)NCC1CC1
inactive: [6] 100 % of control | dose: 200.0 mg/kg/injection, schedule: Q01DX009 (ip), vehicle: saline with Tween-80 90 % of control | dose: 400.0 mg/kg/injection, schedule: Q01DX009 (ip), vehicle: saline with Tween-80 86 % of control

c1cc2c(c(NC3=NCCCO3)c1)CCCC2
inactive: dose: 12.5 mg/kg/injection, schedule: Q01DX009 (ip), vehicle: saline with Tween-80 100 % of control | [3] 110 % of control | [4] 105 % of control

COc1ccc(/C=C(\CC(=O)O)C(=O)O)cc1OC
inactive: [5] 100 % of control | [8] 100 % of control | dose: 200.0 mg/kg/injection, schedule: Q01DX009 (ip), vehicle: Klucel (hydroxypropylcellulose) (HPC) 109 % of control | [9] 100 % of control | dose: 400.0 mg/kg/injection, schedule: Q01DX009 (ip), vehicle: Klucel (hydroxypropylcellulose) (HPC) 95 % of control | [10] 90 % of control

CCN(CC)CCOc1cc(C)ccc1C(C)C
inactive: [3] 96 % of control | dose: 25.0 mg/kg/injection, schedule: Q04DX003 (ip), vehicle: saline with Tween-80 109 % of control | [4] 111 % of control | dose: 50.0 mg/kg/injection, schedule: Q04DX003 (ip), vehicle: saline with Tween-80 109 % of control | [6] 107 % of control | dose: 100.0 mg/kg/injection, schedule: Q04DX003 (ip), vehicle: saline with Tween-80 118 % of control

COc1ccc(Cc2ccccc2)c(O)c1
inactive: dose: 50.0 mg/kg/injection, schedule: Q01DX009 (ip), vehicle: other 108 % of control | dose: 100.0 mg/kg/injection, schedule: Q01DX009 (ip), vehicle: other 104 % of control | dose: 100.0 mg/kg/injection, schedule: Q04DX003 (ip), vehicle: other 109 % of control | dose: 200.0 mg/kg/injection, schedule: Q01DX009 (ip), vehicle: other 116 % of control | dose: 200.0 mg/kg/injection, schedule: Q04DX003 (ip), vehicle: other 104 % of control | dose: 400.0 mg/kg/injection, schedule: Q04DX003 (ip), vehicle: other 109 % of control

CC(C)CCCC(C)CCO (stereo not given)
inactive: dose: 50.0 mg/kg/injection, schedule: Q01DX009 (ip), vehicle: saline 100 % of control | [7] 100 % of control | dose: 200.0 mg/kg/injection, schedule: Q01DX009 (ip), vehicle: saline 101 % of control

CC(=O)CC(=O)c1ccccc1.CC(=O)CC(=O)c1ccccc1.CC(=O)CC(=O)c1ccccc1.[Co]
inactive: dose: 10.0 mg/kg/injection, schedule: Q01DX001 (ip), vehicle: Klucel (hydroxypropylcellulose) (HPC) 90 % of control | dose: 10.0 mg/kg/injection, schedule: Q04DX003 (ip), vehicle: Klucel (hydroxypropylcellulose) (HPC) 104 % of control | dose: 20.0 mg/kg/injection, schedule: Q01DX001 (ip), vehicle: Klucel (hydroxypropylcellulose) (HPC) 104 % of control | dose: 20.0 mg/kg/injection, schedule: Q04DX003 (ip), vehicle: Klucel (hydroxypropylcellulose) (HPC) 104 % of control | dose: 40.0 mg/kg/injection, schedule: Q01DX001 (ip), vehicle: Klucel (hydroxypropylcellulose) (HPC) 104 % of control | dose: 40.0 mg/kg/injection, schedule: Q04DX003 (ip), vehicle: Klucel (hydroxypropylcellulose) (HPC) 100 % of control
